{
  "source": "patent US20070259866A1",
  "about": "“Method of Adenovirus, HIV and HPV Prophylaxis” (priority 1999, published 2007)",
  "system": "NL-HX-ADA (molecularly cloned macrophage-tropic type of HIV-1)",
  "test": "Time course of anti-HIV effect of CTC96 (neutralization vs contact time)",
  "format": "cell-based",
  "protocol": "• Stock virus: NL-HX-ADA ˜5.5 μg/ml p24 (This is a molecularly cloned macrophage-tropic type of HIV-1). Virus was used to infect cells at 1:4,000 final dilution (˜1.4 ng/ml p24). Stock CTC-96: 10 mg/ml prepared directly in RPMI 1640 Method: Concentrated stock solution of virus was treated for 1 hour with equal volume of medium containing the drug at the indicated concentrations (1:2 dilution). The virus/drug mixture was then diluted 1,000-fold (1:2,000 dilution) and then added to an equal volume of PHA-activated humans PBMCs (1:4,000 final dilution) to allow virus replication to occur. The extent of infection was measured after 4 days by a fluorescent focus assay and compared to that of a control culture not containing any drug.\nUsing similar conditions as described above, virus was incubated with 0.625 mg/ml CTC96 for the indicated time period before 1,000-fold dilution and addition to cells.\nVirus was incubated with four different concentrations of CTC96 for the indicated time periods, and then the extent of inactivation tested as previously described. Numbers in parentheses indicate results obtained in the initial analysis for the lowest dose ([…]) of CTC96.",
  "key": {"[1]": {"conditions": "[CTC96] 0.625 μg/ml, contact time 2 minutes"}, "[2]": {"conditions": "[CTC96] 0.625 μg/ml, contact time 4 minutes"}, "[3]": {"conditions": "[CTC96] 0.625 μg/ml, contact time 8 minutes"}, "[4]": {"conditions": "[CTC96] 0.625 μg/ml, contact time 16 minutes"}, "[5]": {"conditions": "[CTC96] 0.625 μg/ml, contact time 32 minutes"}, "[6]": {"conditions": "[CTC96] 0.625 μg/ml, contact time 64 minutes"}},
  "data": [
    {"smiles": "CC1=CC(C)=[N+]2CC[N+]3=C(C)C=C(C)[O][Co-4]23([n+]2cc[nH]c2C)([n+]2cc[nH]c2C)[O]1.[Br-]", "note": "[Compound 96]", "values": [
      {"measurement": "% Neutralization", "setting": "[1]", "result": 15, "unit": "%"},
      {"measurement": "% Neutralization", "setting": "[2]", "result": 25, "unit": "%"},
      {"measurement": "% Neutralization", "setting": "[3]", "result": 41, "unit": "%"},
      {"measurement": "% Neutralization", "setting": "[4]", "result": 56, "unit": "%"},
      {"measurement": "% Neutralization", "setting": "[5]", "result": 65, "unit": "%"},
      {"measurement": "% Neutralization", "setting": "[6]", "result": 80, "unit": "%"},
      {"measurement": "% Neutralization", "setting": "[CTC96] 1.25 μg/ml, contact time 2 minutes", "result": 4, "unit": "%"},
      {"measurement": "% Neutralization", "setting": "[CTC96] 1.25 μg/ml, contact time 4 minutes", "result": 17, "unit": "%"},
      {"measurement": "% Neutralization", "setting": "[CTC96] 1.25 μg/ml, contact time 8 minutes", "result": 42, "unit": "%"},
      {"measurement": "% Neutralization", "setting": "[CTC96] 1.25 μg/ml, contact time 16 minutes", "result": 61, "unit": "%"},
      {"measurement": "% Neutralization", "setting": "[CTC96] 1.25 μg/ml, contact time 32 minutes", "result": 78, "unit": "%"},
      {"measurement": "% Neutralization", "setting": "[CTC96] 1.25 μg/ml, contact time 64 minutes", "result": 94, "unit": "%"},
      {"measurement": "% Neutralization", "setting": "[CTC96] 2.5 μg/ml, contact time 2 minutes", "result": 21, "unit": "%"},
      {"measurement": "% Neutralization", "setting": "[CTC96] 2.5 μg/ml, contact time 4 minutes", "result": 25, "unit": "%"},
      {"measurement": "% Neutralization", "setting": "[CTC96] 2.5 μg/ml, contact time 8 minutes", "result": 47, "unit": "%"},
      {"measurement": "% Neutralization", "setting": "[CTC96] 2.5 μg/ml, contact time 16 minutes", "result": 72, "unit": "%"},
      {"measurement": "% Neutralization", "setting": "[CTC96] 2.5 μg/ml, contact time 32 minutes", "result": 86, "unit": "%"},
      {"measurement": "% Neutralization", "setting": "[CTC96] 2.5 μg/ml, contact time 64 minutes", "result": 100, "unit": "%"},
      {"measurement": "% Neutralization", "setting": "[CTC96] 5 μg/ml, contact time 2 minutes", "result": 37, "unit": "%"},
      {"measurement": "% Neutralization", "setting": "[CTC96] 5 μg/ml, contact time 4 minutes", "result": 52, "unit": "%"},
      {"measurement": "% Neutralization", "setting": "[CTC96] 5 μg/ml, contact time 8 minutes", "result": 65, "unit": "%"},
      {"measurement": "% Neutralization", "setting": "[CTC96] 5 μg/ml, contact time 16 minutes", "result": 78, "unit": "%"},
      {"measurement": "% Neutralization", "setting": "[CTC96] 5 μg/ml, contact time 32 minutes", "result": 98, "unit": "%"},
      {"measurement": "% Neutralization", "setting": "[CTC96] 5 μg/ml, contact time 64 minutes", "result": 100, "unit": "%"},
      {"measurement": "% Neutralization (in parentheses: initial analysis)", "setting": "[1]", "result": 7, "unit": "%"},
      {"measurement": "% Neutralization (in parentheses: initial analysis)", "setting": "[2]", "result": 43, "unit": "%"},
      {"measurement": "% Neutralization (in parentheses: initial analysis)", "setting": "[3]", "result": 56, "unit": "%"},
      {"measurement": "% Neutralization (in parentheses: initial analysis)", "setting": "[4]", "result": 64, "unit": "%"},
      {"measurement": "% Neutralization (in parentheses: initial analysis)", "setting": "[5]", "result": 76, "unit": "%"},
      {"measurement": "% Neutralization (in parentheses: initial analysis)", "setting": "[6]", "result": 100, "unit": "%"}
    ]}
  ]
}
